The source of these data is patent US20250313849A1, “OPTOGENETIC INDUCTION OF MEMBRANELESS ORGANELLES” (UNIVERSITY OF PITTSBURGH-OF THE COMMONWEALTH SYSTEM OF …, priority 2017, published 2025).

“Also recorded” adds a separate entry of the source.

Holding throughout (format): cell-based
Test [1] relates to ReNCell differentiated cortical neuron-like cells. Briefly: Blue light induced stress granules in ReNCell differentiated cortical neuron-like cells. The text has this:
FIG. 20. Blue light induced stress granules using a G3BP1-NcVVDY50W protein arrangement in ReNCell differentiated cortical neuron-like cells. A DNA arrangement that generates the G3BP1-NcVVDY50W was developed and expressed in ReNCell differentiated cortical neuron-like cells. To confirm differentiation of ReN cells to cortical neuron-like cells, cultures were probed for MAP2, a protein that is only expressed in neurons. Under normal conditions, the NcVVDY50W-G3BP1 remains diffuse in the cytoplasm.

Test [2] concerns phospho-eIF2a and ATF4. Briefly: Western blotting for integrated stress response (ISR) components. As to conditions: total protein of cells with blue light induced stress granules. The text has this: FIGS. 21A-21B. […] Total cellular protein from blue light induced stress granules using G3BP1-NcVVDY50W protein arrangement was collected.
(In general: Immunoblotting shows a protein as a band on a membrane.)

Test [3] deals with protein synthesis. Briefly: De novo protein synthesis, HPG incorporation with Click-iT detection. The procedure: FIGS. 14A-14B. […] The major function of endogenous stress granules is to bind mRNAs and halt protein synthesis until the cellular stress is removed. To test this, cells expressing G3BP1-NcVVDY50W were either exposed to blue light stimulation or not for 30 minutes and protein translation was assessed. Prior to the translation assay, cells were treated with cyclohexamide for one hour to inhibit protein synthesis and then the cyclohexamide was removed and cells were provided L-Homopropargylglycine (HPG) for one hour. HPG acts as a methionine amino acid analog and is incorporated into newly synthesized proteins. Click-iT™ chemistry was then performed to detect HPG and cells were imaged. Green signal indicates newly synthesized proteins during the time at which HPG is present in the media.
FIGS. 24A-24E. Replacing the G3BP1 NTF2 domain, which is required for G3BP1 self-oligomerization (optoSG), with oligomerizing photoreceptors, is sufficient to initiate the formation of optogenetic stress granules. FIG. 24A) Schematics of an additional approach to seed optoStress Granules (optoSGs) employing truncated G3BP1 protein and replacing the NTF2 oligomerizing domain with a photoreceptor with the capacity to oligomerize (in this instance Cry2-PHR, but also works with chronic stimulation of dimerizing photoreceptor). FIG. 24B) HEK cells expressing Cry2 PHR-[…]NTF-G3BP1 were exposed to blue light LED stimulation for 30 minutes to induce the formation of optoSGs.

For test [4], the system named is HEK293 cells. Briefly: Blue light induced stress granules: staining for stress granule markers and mRNA. As to conditions: blue light stimulation. An excerpt:
FIGS. 2A-2B. Blue light induced stress granules using a NcVVDY50W-G3BP1 protein arrangement. […] A DNA arrangement that generates the NcVVDY50W-G3BP1 was developed and expressed in HEK293 cells. Under normal conditions, the NcVVDY50W-G3BP1 remains diffuse in the cytoplasm. When endogenous stress granule formation is induced with heat shock, the NcVVDY50W-G3BP1 forms stress granules that stain positive for key markers including Ataxin-2 and TIAR.
FIG. 5. […] Under normal conditions, G3BP1-NcVVDY50W remains diffuse in the cytoplasm. When endogenous stress granule formation is induced with NaAsO2 (0.5 mM, 30 min treatment), the G3BP1-NcVVDY50W forms stress granules that stain positive for key markers TDP-43 and eIF4G. […] As an example of this technology, DNA arrangements were developed that generated G3BP1-NcVVDY50W, and expressed in HEK293 cells. Under normal conditions, the G3BP1-NcVVDY50W remains diffuse in the cytoplasm. When endogenous stress granule formation is induced with sodium arsenite, the G3BP1-NcVVDY50W forms stress granules that probe positive for key markers, including TDP-43 and eIF4G. […] Inserts are 3D images of stress granules indicated by arrows.
While stress granule dynamics are shown to be altered in these diseases, the true contributions of stress granules to disease pathobiology is unknown since the only current method to form these organelles is to introduce an extracellular stressor (e.g. heat stress at 43° C., exposure to sodium arsenite) which is toxic to cells and ultimately kills the cells being studied. The longest studies of stress granules to date are only on the order of a few hours and so, the importance of these organelles in the initiation of neurodegeneration or cancer cannot be assessed. Therefore, a method to control stress granule formation was developed using light, without the need for any extracellular stressors. To achieve this, the DNA encoding specific photoreceptor protein domains that self-bind with blue light exposure were linked to the DNA of a key protein required for the formation of stress granules, G3BP1 or TIA1. These arrangements were then expressed in HEK293 cells and were tested for their ability to form functional stress granules with various blue light treatment paradigms. It was shown that the LOV photoreceptor domain, from the Vivid protein of N. crassa, which is known to dimerize with blue light exposure, when fused to G3BP1 and exposed to 15-1080 min of 465 nm light at 0.1-1.0 mW/cm2 initiates the formation of a core stress granule structure consisting of the photoreceptors fused to G3BP1 that recruits additional G3BP1 and accessory proteins that comprise stress granules and allow for their maturation. This likely involved the liquid-liquid phase separation (LLPS) and dimerization and oligomerization of G3BP1 (concept represented in FIG. 1).

As to “G3BP1-NcVVDY50W: G3BP1 Full Length Protein with NcVivid Y50W, SEQ ID NO: 16”, the “colocalization of blue light induced stress granules with Ataxin-2” value in test [1] is “colocalize with the key stress granule marker Ataxin-2”. Besides, the “induction of cell stress (phospho-eIF2a, ATF4)” value in test [2] is “do not induce a cell stress”. Also, the “reduction in protein synthesis with light-induced stress granules” value in test [3] (blue light stimulation 30 minutes, HPG for one hour) worked out at 40%. Also, in test [3] (blue light stimulation, Click-iT detection), the “protein synthesis (HPG signal) with light-induced stress granules” value is reported as “little to no HPG signal”. Besides, in test [4], the “colocalization of blue light induced stress granules with stress granule markers” value was “colocalize with the key translation factor eIF4G, and the stress granule marker Ataxin-2; also recorded: colocalize with the key stress granule markers TIAR and G3BP; also recorded: probe positive for TDP-43 and eIF4G; also recorded: colocalize with the key stress granule markers RPS6 and eIF4G (FIG. 6A), as well as Ataxin-2 and RPS3; also recorded: colocalize with the key stress granule markers PABPC1 and G3BP (FIG. 7A), as well as eIF3H and eIF4G; also recorded: colocalize with the key stress granule markers FUS and G3BP; also recorded: colocalize with the key stress granule marker Ataxin-2, but not RPL36a”; the “mRNA sequestration by blue light induced stress granules” value is “sequester cytoplasmic mRNA”.
